Literature values, collected in paper PMC9924909 (Brain, 2022).
Like-named read-outs stand apart in the source and are kept apart here.

Legend:
[1] = cited from earlier work
patients with GD3 = conditions: cited from earlier work

SMILES | distribution to the brain [1] | effect on neurological symptoms (patients with GD3) | effect on neurological symptoms (patients with GD3; listed as miglustat)
CCCCN1C[C@H](O)[C@@H](O)[C@H](O)[C@H]1CO [Miglustat] | partially distributed to the brain | ineffective for neurological symptoms | no clinical benefit
CCCCCCCC(=O)N[C@H](CN1CCCC1)[C@H](O)c1ccc2c(c1)OCCO2 [Eliglustat] | excluded from the brain | – | –
